Data reported in patent publication US7253177B2, “Synthesis and antimalarial activity of pyrrolo[3,2-f]quinazoline-1,3-diamine derivatives” (United States of America as Represented by the Secretary of …, priority 2004, dated 2007).

Tested on: Plasmodium yoelii (17x) sporozoites
Test: Sporozoite induced test in mice
Assay type: in vivo
Conditions: P. yoelii; for Number of Mice Cured: oral
Description: B. Antimalarial Activities: (a). In Vitro Antimalarial Studies. The in vitro assays were conducted by using a modification of the semiautomated microdilution technique of Desjardins et al and Chulay et al.. Four P. falciparum malaria parasite clones, from CDC Indochina III (W-2), CDC Sierra Leone I (D-6), Southeast Asia Isolates (TM91C235) and RCS (Isolates from Brazil) were utilized in susceptibility testing. They were derived by direct visualization and micromanipulation from patient isolates. The W-2 clone is susceptible to mefloquine but resistant to chloroquine, sulfadoxine, pyrimethamine, and quinine, whereas the D-6 clone is naturally resistant to mefloquine but susceptible to chloroquine, sulfadoxine, pyrimethamine and quinine. Test compounds were initially dissolved in DMSO and diluted 400 fold in RPMI 1640 culture medium supplemented with 25 mM Hepes, 32 mM NaHCO3 and 10% Albumax I (Gibco BRL, Grand Island, N.Y.). These solutions were subsequently serially diluted two-fold with a Biomek 1000 (Beckman, Fullerton, Calif.) over 11 different concentrations. The parasites were exposed to serial dilutions of each compound for 48 hrs and incubated at 37° C. with 5% O2, 5% CO2 and 90% N2 prior to the addition of [^3H]hypoxanthine. After a further incubation of 18 hrs, parasite DNA was harvested from each microtiter well using Packard Filtermate 196 Harvester (Meriden, Conn.) onto glass filters. Uptake of [^3H]hypoxanthine was measured with a Packard Topcount Scintillation. Concentration-response data were analyzed by a non-linear regression logistic dose response model and the IC50 values (50% inhibitory concentrations) for each compound were calculated. (Table 3). (b). In Vivo Antimalarial Studies against P. berghei in mice: The in vivo efficacy of the artelinic acid analogs were determined in a modified Thompson test. This test measures the survivability of mice and parasitemia clearance following administration of drug on days 3-5 post infection. In brief, 5×10^6 P. berghei-infected erythrocytes (KBG-173 strain) were inoculated intraperitoneally to female mice that weighed 24-30 g. By day three post-infection, parasitemia ranged from 1.0-3.7%. Each drug, dissolved in 5% sodium bicarbonate, was administered PO twice daily from day 3-5 post-infection. Total doses for each drug ranged from 1.5-384 mg/kg with 8 mice included in each dosage group. The percent suppression of parasitemia in the treated mice compared to the untreated controls was determined for each test compound; the SD-50 (fifty percent suppression dose) and SD-90 were determined from a non-linear regression logistic dose response fit at day 6 parasitemia data. Survival of mice to day 60 post-infection was considered a cure (C). Compounds were considered active (A) when the survival time of the treated mice was greater than twice the control mice, i.e., 12-14 day (Table 4-5). (c). Sporozoite Induced Test Each compound is ground with a mortar & pestle and suspended in 0.5% hydroxyethylcellulose—0.1% Tween 80 for compounds to be administered PO and those given SC are suspended in peanut oil. Each compound is prepared at 3 different dose levels as requested by WRAIR. Compounds are administered either PO or SC to mice once 4 hr before inoculation of sporozoites. Four-week-old male CD-1 mice, purchased from Charles River and weighing 16-17 g, are placed 5 per cage and allowed to acclimate for 4 days before being treated and then inoculated with sporozoites. They are fed food and water ad-lib and maintained at 76° F. with 12 hr light and 12 hr darkness. The cages and water bottles are changed biweekly. The mice are weighed on Days 0, 3 and 6 then biweekly when blood films are taken. Plasmodium yoelii (17×) is used to infect mice that will be used to infect the mosquitoes. […] Whole body weights are taken on Day 0 and Day 6 then twice a week for 31 days. A blood film is taken on Day 5 and then twice a week for 31 days. Mice loosing >20% of their body weight will be sacrificed. […]

For CC(=O)N(C(C)=O)c1nc(N(C(C)=O)C(C)=O)c2c(ccc3c2ccn3Cc2ccccc2C(F)(F)F)n1 [Compound 3e, 1,3-Bis(diacetylamino)-7-(2-trifluoromethyl)benzyl-7H-pyrrolo[3,2-f]quinazoline], the mice cured (dose groups from 0.625 to 40 mg/kg) was 100%, the “parasitemia formation in sporozoite challenged mouse” value (doses from 0.65 to 40 mg/kg given orally for 3 consecutive days) was “completely prevented parasitemia formation” and the “Number of Mice Cured” value (0.15625 mg/kg) was 4/5. The “Number of Mice Cured” value (0.3125 mg/kg) was 4/5, the “Number of Mice Cured” value (0.625 mg/kg) was 5/5 and the “Number of Mice Cured” value (2.5 mg/kg) was 5/5. For the same compound, the “Number of Mice Cured” value (10 mg/kg) was 5/5 and the “Number of Mice Cured” value (40 mg/kg) was 5/5.
